From ChEMBL document CHEMBL1128962, “Serotoninergic 5-HT3 and 5-HT4 receptor activities of dihydrobenzofuran carboxylic acid derivatives” (Bioorg Med Chem Lett, 1996)

What was measured:
[1] = biological target: T1, 5-hydroxytryptamine receptor 4 (Rattus norvegicus, UniProt Q62758); experiment: In vitro relaxation of carbachol pre-contracted rat oesophageal TMM.; type: functional
[2] = biological target: T2, Serotonin 3 (5-HT3) receptor (Rattus norvegicus, UniProt P35563+Q9JJ16); experiment: Binding affinity at 5-hydroxytryptamine 3 receptor in rat entorhinal cortex by [3H]BRL-43694 displacement.; type: tissue-based
T2 sequence (P35563 whole entry): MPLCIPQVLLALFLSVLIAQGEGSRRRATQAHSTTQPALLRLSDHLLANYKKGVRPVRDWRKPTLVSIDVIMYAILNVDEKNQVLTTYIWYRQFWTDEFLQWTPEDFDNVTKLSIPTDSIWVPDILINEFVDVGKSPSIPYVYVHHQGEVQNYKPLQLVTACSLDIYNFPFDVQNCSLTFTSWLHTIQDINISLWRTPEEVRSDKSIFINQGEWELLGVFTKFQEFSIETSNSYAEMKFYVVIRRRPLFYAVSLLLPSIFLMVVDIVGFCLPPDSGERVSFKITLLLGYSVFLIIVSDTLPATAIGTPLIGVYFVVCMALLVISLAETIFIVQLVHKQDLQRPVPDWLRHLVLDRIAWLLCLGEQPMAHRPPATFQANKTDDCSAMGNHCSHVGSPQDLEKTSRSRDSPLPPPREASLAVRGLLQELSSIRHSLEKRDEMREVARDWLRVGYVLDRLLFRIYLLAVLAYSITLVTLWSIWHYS
T2 sequence (Q9JJ16 whole entry): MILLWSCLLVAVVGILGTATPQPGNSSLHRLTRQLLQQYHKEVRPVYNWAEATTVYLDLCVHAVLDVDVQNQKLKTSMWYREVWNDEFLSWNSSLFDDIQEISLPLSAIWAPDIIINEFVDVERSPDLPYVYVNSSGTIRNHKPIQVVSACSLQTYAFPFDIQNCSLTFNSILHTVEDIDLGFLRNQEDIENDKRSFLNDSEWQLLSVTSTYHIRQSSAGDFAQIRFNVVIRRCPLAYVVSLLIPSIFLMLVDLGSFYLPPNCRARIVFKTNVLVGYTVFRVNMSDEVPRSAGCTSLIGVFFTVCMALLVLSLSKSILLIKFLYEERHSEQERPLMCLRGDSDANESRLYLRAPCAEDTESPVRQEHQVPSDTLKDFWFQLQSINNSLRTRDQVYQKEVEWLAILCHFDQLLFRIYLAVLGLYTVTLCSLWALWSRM

[3] = biological target: T1, 5-hydroxytryptamine receptor 4; experiment: Binding affinity at 5-hydroxytryptamine 4 receptor in rat striatum by [3H]GR-113808 displacement.; type: tissue-based
[4] = biological target: Serotonin 3 (5-HT3) receptor (Homo sapiens) (UniProt P46098+A5X5Y0+O95264+Q70Z44+Q8WXA8); experiment: In vitro 5-hydroxytryptamine 3 receptor activity in guinea pig ileum; type: tissue-based; settings: Cavia porcellus, target entry is the homologue from another species
[5] = biological target: 5-hydroxytryptamine receptor 4 (Rattus norvegicus) (UniProt Q62758); experiment: In vitro 5-hydroxytryptamine 4 receptor activity by using carbachol-precontracted esophageal tunica muscularis mucosae.
[6] = biological target: 5-hydroxytryptamine receptor 4 (Rattus norvegicus) (UniProt Q62758); experiment: In vitro 5-hydroxytryptamine 4 receptor activity by using carbachol-precontracted esophageal tunica muscularis mucosae; No activity up to 104M concentration

Chain of 5-hydroxytryptamine receptor 4 (Rattus norvegicus) (Q62758 whole entry): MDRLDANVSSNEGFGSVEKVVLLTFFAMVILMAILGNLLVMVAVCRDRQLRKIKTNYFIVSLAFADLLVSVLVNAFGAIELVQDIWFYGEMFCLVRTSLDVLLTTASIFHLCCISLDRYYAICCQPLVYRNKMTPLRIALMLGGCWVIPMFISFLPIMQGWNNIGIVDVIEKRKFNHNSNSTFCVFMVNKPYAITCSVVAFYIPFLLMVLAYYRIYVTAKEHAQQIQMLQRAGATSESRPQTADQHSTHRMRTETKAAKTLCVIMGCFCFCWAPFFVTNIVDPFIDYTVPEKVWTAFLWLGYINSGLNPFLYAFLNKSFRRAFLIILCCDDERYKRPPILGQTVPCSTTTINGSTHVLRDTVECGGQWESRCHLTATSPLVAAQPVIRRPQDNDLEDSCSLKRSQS
T1 sequence (Q62758 whole entry): as above

Nc1c(Cl)cc(C(=O)NCCN2CCCCC2)c2c1CCO2
EC50 [1]: 35.4 nM
Ki [2]: 380 nM
Ki [3]: 41 nM

CCCCN1CCC(CNC(=O)c2cc(Cl)c(N)c3c2OCC3)CC1
EC50 [1]: 4.49 nM
Ki [2]: 57 nM
Ki [3]: 1.9 nM

COc1cc(N)c(Cl)cc1C(=O)N[C@@H]1CN2CCC1CC2
EC50 [1]: 55.9 nM
Ki [2]: 0.11 nM
Ki [3]: 131 nM

O=C(N[C@H]1CN2CCC1CC2)c1cc(Cl)cc2c1OCC2
EC50 [1]: > 1000 nM
Ki [2]: 1 nM
Kb [4]: 38 nM
Kb [5]: > 1000 nM
Ki [3]: 280 nM

Nc1ccc(C(=O)N[C@@H]2CN3CCC2CC3)c2c1CCO2
EC50 [1]: > 10000 nM
Ki [2]: 1 nM
Kb [4]: 44.6 nM
Kb [5]: > 100 nM
Ki [3]: > 1000 nM

CCCCN1CCC(COC(=O)c2cc(Cl)c(N)c3c2OCC3)CC1
EC50 [1]: 1.85 nM
Ki [2]: 250 nM
Ki [3]: 0.13 nM

Nc1c(Cl)cc(C(=O)NCCCN2CCCCC2)c2c1CCO2
EC50 [1]: 19.3 nM
Ki [2]: > 10000 nM
Ki [3]: 9.6 nM

Nc1c(Cl)cc(C(=O)N[C@@H]2CN3CCC2CC3)c2c1CCO2
EC50 [1]: 18.6 nM
Kb [6]: 18.6 nM
Ki [2]: 0.1 nM
Kb [4]: 3.8 nM
Ki [3]: 17 nM

Nc1c(Cl)cc(C(=O)OCCCN2CCCCC2)c2c1CCO2
EC50 [1]: 7.43 nM
Ki [2]: 1180 nM
Ki [3]: 4.5 nM

CCN(CC)CCNC(=O)c1cc(Cl)c(N)cc1OC [METOCLOPRAMIDE]
Ki [2]: 490 nM

Nc1ccc(C(=O)N[C@H]2CN3CCC2CC3)c2c1CCO2
EC50 [1]: > 1000 nM
Ki [2]: 20 nM
Kb [5]: > 1000 nM
Ki [3]: > 1000 nM

CCCC[N+]12CCC(CC1)[C@@H](NC(=O)c1cc(Cl)c(N)c3c1OCC3)C2
EC50 [1]: 1360 nM
Ki [2]: 10 nM
Ki [3]: 420 nM

O=C(N[C@@H]1CN2CCC1CC2)c1cc(Cl)cc2c1OCC2
EC50 [1]: > 10000 nM
Ki [2]: 1 nM
Kb [4]: 21.8 nM
Kb [5]: > 100 nM
Ki [3]: 170 nM

O=C(N[C@H]1CN2CCC1CC2)c1cccc2c1OCC2
EC50 [1]: > 1000 nM
Ki [2]: 14 nM
Kb [5]: > 1000 nM
Ki [3]: > 10000 nM

CCCC[N+]12CCC(CC1)[C@H](NC(=O)c1cc(Cl)c(N)c3c1OCC3)C2
EC50 [1]: 8.5 nM
Ki [2]: 73 nM
Ki [3]: 1.9 nM

O=C(N[C@@H]1CN2CCC1CC2)c1cccc2c1OCC2
EC50 [1]: > 10000 nM
Ki [2]: 1.4 nM
Kb [4]: 40.7 nM
Kb [5]: > 1000 nM
Ki [3]: > 1000 nM

Nc1c(Cl)cc(C(=O)OCCN2CCCCC2)c2c1CCO2
EC50 [1]: 2.02 nM
Ki [2]: 110 nM
Ki [3]: 0.94 nM

Nc1c(Cl)cc(C(=O)N[C@H]2CN3CCC2CC3)c2c1CCO2
EC50 [1]: 195 nM
Ki [2]: 1 nM
Kb [4]: 33.9 nM
Ki [3]: 115 nM
